# According to ChEMBL document CHEMBL1154147, “Antityrosinase and antioxidant effects of ent-kaurane diterpenes from leaves of Broussonetia papyrifera” (J Nat Prod, 2008):
# Biological target: T1, Tyrosinase (Agaricus bisporus, UniProt O42713)
# T1 sequence (O42713 whole entry): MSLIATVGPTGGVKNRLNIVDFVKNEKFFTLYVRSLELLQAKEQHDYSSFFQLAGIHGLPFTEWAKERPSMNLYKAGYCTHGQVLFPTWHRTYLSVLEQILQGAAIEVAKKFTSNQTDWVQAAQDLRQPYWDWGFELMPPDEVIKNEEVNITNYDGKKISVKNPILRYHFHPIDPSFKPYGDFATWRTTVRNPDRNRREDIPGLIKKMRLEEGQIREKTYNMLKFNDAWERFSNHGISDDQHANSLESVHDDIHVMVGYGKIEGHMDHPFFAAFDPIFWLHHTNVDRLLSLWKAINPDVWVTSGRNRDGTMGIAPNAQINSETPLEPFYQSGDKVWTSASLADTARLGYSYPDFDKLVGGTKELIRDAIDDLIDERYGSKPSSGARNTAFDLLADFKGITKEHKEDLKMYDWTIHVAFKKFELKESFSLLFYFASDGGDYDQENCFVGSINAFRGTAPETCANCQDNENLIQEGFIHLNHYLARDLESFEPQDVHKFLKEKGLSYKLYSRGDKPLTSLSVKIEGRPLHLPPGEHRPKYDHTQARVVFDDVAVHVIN
# Description: (§1) Inhibition of mushroom tyrosinase after 90 mins
row,SMILES,IC50
1,O=c1cc(-c2ccc(O)cc2)oc2c([C@@H]3O[C@H](CO)[C@@H](O)[C@H](O)[C@H]3O)c(O)cc(O)c12 [VITEXIN],Not Active

# System: Radical scavenging activity
# Description: Antioxidant activity assessed as DPPH free radical scavenging activity after 30 mins
row,SMILES,IC50
1,O=c1cc(-c2ccc(O)cc2)oc2cc(O)cc(O)c12 [APIGENIN],Not Active
2,CC1(C)CCC[C@]2(C)[C@@H]1C(=O)[C@@H](O)[C@@]13C[C@H](CC[C@@H]21)[C@@](O)(CO)C3 [BROUSSONETONE A],Not Active
3,CC1(C)CCC[C@]2(C)[C@@H]1C(=O)[C@H](O)[C@@]13C[C@H](CC[C@@H]21)[C@@](O)(CO)C3 [BROUSSONETONE B],Not Active
4,CC1(C)OC[C@]2(C[C@]34C[C@@H]2CC[C@H]3[C@]2(C)CCCC(C)(C)[C@H]2C(=O)[C@H]4O)O1 [BROUSSONETONE C],Not Active
5,COc1ccc(O)c(C(C)(C)C)c1.COc1ccc(O)cc1C(C)(C)C [BUTYLATED HYDROXYANISOLE],79.2 µM
6,O=c1cc(-c2ccc(O)cc2)oc2c([C@@H]3O[C@H](CO)[C@@H](O)[C@H](O)[C@H]3O)c(O)cc(O)c12 [VITEXIN],Not Active

# Biological target: T1, Tyrosinase
# Remark: another data set of the same source
# Description: (§2) Inhibition of mushroom tyrosinase after 30 mins
row,IC50 [µM],SMILES
1,336,CC1(C)CCC[C@]2(C)[C@@H]1C(=O)[C@@H](O)[C@@]13C[C@H](CC[C@@H]21)[C@@](O)(CO)C3 [BROUSSONETONE A]
2,353,CC1(C)OC[C@]2(C[C@]34C[C@@H]2CC[C@H]3[C@]2(C)CCCC(C)(C)[C@H]2C(=O)[C@H]4O)O1 [BROUSSONETONE C]

row,SMILES,IC50 [µM]
1,O=c1cc(-c2ccc(O)cc2)oc2cc(O)cc(O)c12 [APIGENIN],305

# Biological target: T1, Tyrosinase
# Remark: another data set of the same source
# Description: as §2
row,SMILES,IC50
1,CC1(C)CCC[C@]2(C)[C@@H]1C(=O)[C@H](O)[C@@]13C[C@H](CC[C@@H]21)[C@@](O)(CO)C3 [BROUSSONETONE B],Not Active
2,O=c1cc(-c2ccc(O)cc2)oc2c([C@@H]3O[C@H](CO)[C@@H](O)[C@H](O)[C@H]3O)c(O)cc(O)c12 [VITEXIN],Not Active

# Biological target: T1, Tyrosinase
# Remark: another data set of the same source
# Description: as §1
row,SMILES,IC50 [µM]
1,O=c1cc(-c2ccc(O)cc2)oc2cc(O)cc(O)c12 [APIGENIN],305
2,CC1(C)OC[C@]2(C[C@]34C[C@@H]2CC[C@H]3[C@]2(C)CCCC(C)(C)[C@H]2C(=O)[C@H]4O)O1 [BROUSSONETONE C],323

# Other lines, results leading:
row,IC50 [µM],SMILES
1,322,CC1(C)CCC[C@]2(C)[C@@H]1C(=O)[C@@H](O)[C@@]13C[C@H](CC[C@@H]21)[C@@](O)(CO)C3 [BROUSSONETONE A]
2,317,CC1(C)CCC[C@]2(C)[C@@H]1C(=O)[C@H](O)[C@@]13C[C@H](CC[C@@H]21)[C@@](O)(CO)C3 [BROUSSONETONE B]
